Structures can show the parent of a compound that is named as a salt.
target: T1, recombinant sEH (Homo sapiens, UniProt P34913); experiment: biochemical screening assay for inhibition of soluble epoxide hydrolase (fluorometric, Phome substrate)
T1 construct: made in house; host or cells: Sf9 insect cells
T1 sequence (P34913 1-555): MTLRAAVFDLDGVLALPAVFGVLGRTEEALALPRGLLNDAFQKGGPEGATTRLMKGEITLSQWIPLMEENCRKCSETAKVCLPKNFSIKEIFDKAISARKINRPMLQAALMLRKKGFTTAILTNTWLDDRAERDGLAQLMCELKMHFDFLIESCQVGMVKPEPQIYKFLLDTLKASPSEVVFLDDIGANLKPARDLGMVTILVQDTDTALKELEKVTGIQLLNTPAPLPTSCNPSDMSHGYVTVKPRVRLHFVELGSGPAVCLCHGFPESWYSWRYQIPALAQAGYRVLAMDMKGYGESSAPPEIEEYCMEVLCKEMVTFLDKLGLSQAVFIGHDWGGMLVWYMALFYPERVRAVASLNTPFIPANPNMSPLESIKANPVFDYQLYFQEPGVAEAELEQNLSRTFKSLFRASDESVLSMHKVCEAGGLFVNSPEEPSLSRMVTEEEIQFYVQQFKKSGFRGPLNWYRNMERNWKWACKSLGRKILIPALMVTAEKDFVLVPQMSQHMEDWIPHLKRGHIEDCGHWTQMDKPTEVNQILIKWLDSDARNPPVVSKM
Summary of the method: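 Reading fluorescence before substrate addition and after completion corrected for autofluorescence. Reaction: 5 μM Phome, 2 nM recombinant human sEH (Sf9-expressed), compound 0.0001–10 μM, 25 mM Hepes with 0.01% albumin, 15 min pre-incubation then 60 min at 30 °C; IC50 derived from % inhibition.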

Going from O=C(NCCc1ccccc1)N[C@H]1CO[C@H]2[C@@H]1OC[C@@H]2C#Cc1ccccc1 [Example 297, 1-Phenethyl-3-((3S,3aR,6S,6aR)-6-phenylethynyl-hexahydro-furo[3,2-b]furan-3-yl)-urea] to O=C(NCCc1ccccc1)N[C@H]1CO[C@H]2[C@@H]1OC[C@@H]2C#Cc1ccsc1 [Example 314, 1-Phenethyl-3-((3S,3aR,6S,-6aR)-6-thiophen-3-ylethynyl-hexahydro-furo[3,2-b]furan-3-yl)-urea], the IC50 falls from 67 nM to 33 nM (2-fold). The second is the more potent here.

Compared with O=C(Nc1ccc(OC(F)(F)F)cc1)N[C@H]1CO[C@H]2[C@@H]1OC[C@@H]2C#Cc1ccccc1 [Example 298, 1-((3S,3aR,6S,6aR)-6-Phenylethynyl-hexahydro-furo[3,2-b]furan-3-yl)-3-(4-trifluoromethoxy-phenyl)-urea], O=C(Nc1ccc(OC(F)(F)F)cc1)N[C@H]1CO[C@H]2[C@@H]1OC[C@@H]2C#Cc1ccsc1 [Example 315, 1-((3S,3aR,6S,6aR)-6-Thiophen-3-ylethynyl-hexahydro-furo[3,2-b]furan-3-yl)-3-(4-trifluoromethoxy-phenyl)-urea] is 1.7-fold lower in IC50: 25 nM for the first, 15 nM for the second.

Compared with O=C(Nc1cccc(C(F)(F)F)c1)N[C@H]1CO[C@H]2[C@@H]1OC[C@@H]2C#Cc1ccccc1 [Example 299, 1-((3S,3aR,6S,6aR)-6-Phenylethynyl-hexahydro-furo[3,2-b]furan-3-yl)-3-(3-trifluoromethyl-phenyl)-urea], O=C(Nc1cccc(C(F)(F)F)c1)N[C@H]1CO[C@H]2[C@@H]1OC[C@@H]2C#Cc1ccsc1 [Example 316, 1-((3S,3aR,6S,6aR)-6-Thiophen-3-ylethynyl-hexahydro-furo[3,2-b]furan-3-yl)-3-(3-trifluoromethyl-phenyl)-urea] is 14-fold lower in IC50: 1250 nM for the first, 87 nM for the second.

O=C(NC1CCCCC1)N[C@H]1CO[C@H]2[C@@H]1OC[C@@H]2C#Cc1ccccn1 [Example 300, 1-Cyclohexyl-3-((3S,3aR,6S,-6aR)-6-pyridin-2-ylethynyl-hexahydro-furo[3,2-b]furan-3-yl)-urea; trifluoroacetate] and O=C(NC1CCCCC1)N[C@H]1CO[C@H]2[C@@H]1OC[C@@H]2/C=C\c1ccccc1 [Example 319, 1-Cyclohexyl-3-[(3S,3aR,6S,6aR)-6-((Z)-styryl)-hexahydro-furo[3,2-b]furan-3-yl]-urea] are within 1.5-fold of each other in IC50: 19 nM for the first, 17 nM for the second.

COc1cc(NC(=O)N[C@H]2CO[C@H]3[C@@H]2OC[C@@H]3C#Cc2ccsc2)cc(OC)c1 [Example 301, 1-(3,5-Dimethoxy-phenyl)-3-((3S,3aR,6S,6aR)-6-thiophen-3-ylethynyl-hexahydro-furo[3,2-b]furan-3-yl)-urea] and Cc1cc(C)cc(NC(=O)N[C@H]2CO[C@H]3[C@@H]2OC[C@@H]3C#Cc2ccsc2)c1 [Example 302, 1-(3,5-Dimethyl-phenyl)-3-((3S,3aR,6S,6aR)-6-thiophen-3-ylethynyl-hexahydro-furo[3,2-b]furan-3-yl)-urea] are within 1.5-fold of each other in IC50: 104 nM for the first, 72 nM for the second.

First: O=C(Nc1ccccc1)NC1COC2C(C#Cc3ccsc3)COC12 [Example 303, 1-Phenyl-3-((3S,3aR,6S,-6aR)-6-thiophen-3-ylethynyl-hexahydro-furo[3,2-b]furan-3-yl)-urea]
Second: O=C(Nc1cccc(F)c1)N[C@H]1CO[C@H]2[C@@H]1OC[C@@H]2C#Cc1ccsc1 [Example 311, 1-(3-Fluoro-phenyl)-3-((3S,3aR,6S,6aR)-6-thiophen-3-ylethynyl-hexahydro-furo[3,2-b]furan-3-yl)-urea]
The IC50 of the first is 1.7-fold higher: 241 nM for the first, 146 nM for the second. The second is the more potent here.

O=C(NCc1ccc(F)cc1)N[C@H]1CO[C@H]2[C@@H]1OC[C@@H]2C#Cc1ccsc1 [Example 304, 1-(4-Fluoro-benzyl)-3-((3S,3aR,6S,6aR)-6-thiophen-3-ylethynyl-hexahydro-furo[3,2-b]furan-3-yl)-urea] and O=C(Nc1ccc(F)cc1)N[C@H]1CO[C@H]2[C@@H]1OC[C@@H]2C#Cc1ccsc1 [Example 306, 1-(4-Fluoro-phenyl)-3-((3S,3aR,6S,6aR)-6-thiophen-3-ylethynyl-hexahydro-furo[3,2-b]furan-3-yl)-urea] are within 1.5-fold of each other in IC50: 279 nM for the first, 192 nM for the second.

Compared with Cc1cccc(CNC(=O)N[C@H]2CO[C@H]3[C@@H]2OC[C@@H]3C#Cc2ccsc2)c1 [Example 305, 1-(3-Methyl-benzyl)-3-((3S,3aR,6S,6aR)-6-thiophen-3-ylethynyl-hexahydro-furo[3,2-b]furan-3-yl)-urea], CSc1cccc(NC(=O)N[C@H]2CO[C@H]3[C@@H]2OC[C@@H]3C#Cc2ccsc2)c1 [Example 312, 1-(3-Methylsulfanyl-phenyl)-3-((3S,3aR,6S,6aR)-6-thiophen-3-ylethynyl-hexahydro-furo[3,2-b]furan-3-yl)-urea] is 2.3-fold lower in IC50: 243 nM for the first, 107 nM for the second. The second is the more potent here.

O=C(Nc1ccccc1-c1ccccc1)N[C@H]1CO[C@H]2[C@@H]1OC[C@@H]2C#Cc1ccsc1 [Example 307, 1-Biphenyl-2-yl-3-((3S,3aR,6S,6aR)-6-thiophen-3-ylethynyl-hexahydro-furo[3,2-b]furan-3-yl)-urea] and O=C(Nc1ccc(C(F)(F)F)cc1)NC1COC2C(C#Cc3ccsc3)COC12 [Example 308, 1-((3S,3aR,6S,6aR)-6-Thio-phen-3-ylethynyl-hexahydro-furo[3,2-b]furan-3-yl)-3-(4-trifluoromethyl-phenyl)-urea] are within 1.5-fold of each other in IC50: 59 nM for the first, 48 nM for the second.

Compared with COC(=O)c1cccc(NC(=O)NC2COC3C(C#Cc4ccsc4)COC23)c1 [Example 309, 3-[3-((3S,3aR,6S,6aR)-6-Thio-phen-3-ylethynyl-hexahydro-furo[3,2-b]furan-3-yl)-ureido]-benzoic acid methyl ester], O=C(Nc1ccc2c(c1)CCC2)N[C@H]1CO[C@H]2[C@@H]1OC[C@@H]2C#Cc1ccsc1 [Example 310, 1-Indan-5-yl-3-((3S,3aR,6S,6aR)-6-thiophen-3-ylethynyl-hexahydro-furo[3,2-b]furan-3-yl)-urea] is 4.6-fold higher in IC50: 16 nM for the first, 73 nM for the second. The first is the more potent here.

O=C(NCCc1cccs1)N[C@H]1CO[C@H]2[C@@H]1OC[C@@H]2C#Cc1ccsc1 [Example 313, 1-(2-Thiophen-2-yl-ethyl)-3-((3S,3aR,6S,6aR)-6-thiophen-3-ylethynyl-hexahydro-furo[3,2-b]furan-3-yl)-urea] and O=C(NCc1ccc(F)cc1)NC1COC2C(C=Cc3ccccc3)COC12 [Example 325, 1-(4-Fluoro-benzyl)-3-[(3S,3aR,6R)-6-((S)-(Z)-styryl)-hexahydro-furo[3,2-b]furan-3-yl]-urea] are within 1.5-fold of each other in IC50: 56 nM for the first, 75 nM for the second.

First: O=C(NC1CCCCC1)N[C@H]1CO[C@H]2[C@@H]1OC[C@@H]2/C=C\c1ccc2c(c1)OCO2 [Example 317, 1-[(3S,3aR,6S,6aR)-6-((Z)-2-Benzo[1,3]dioxol-5-yl-vinyl)-hexahydro-furo[3,2-b]furan-3-yl]-3-cyclohexyl-urea]
Second: O=C(Nc1ccc2c(c1)OCCO2)N[C@H]1CO[C@H]2[C@@H]1OC[C@@H]2/C=C\c1ccccc1 [Example 318, 1-(2,3-Dihydro-benzo[1,4]dioxin-6-yl)-3-[(3S,3aR,6S,6aR)-6-((Z)-styryl)-hexahydro-furo[3,2-b]furan-3-yl]-urea]
The IC50 of the first is 76-fold lower: 3 nM for the first, 227 nM for the second.

CCCCOc1ccc(NC(=O)NC2COC3C(C=Cc4ccccc4)COC23)cc1 [Example 320, 1-(4-Butoxy-phenyl)-3-[(3S,3aR,6R)-6-((S)-(Z)-styryl)-hexahydro-furo[3,2-b]furan-3-yl]-urea] and O=C(Nc1ccc(F)cc1)NC1COC2C(C=Cc3ccccc3)COC12 [Example 328, 1-(4-Fluoro-phenyl)-3-[(3S,3aR,6R)-6-((S)-(Z)-styryl)-hexahydro-furo[3,2-b]furan-3-yl]-urea] are within 1.5-fold of each other in IC50: 140 nM for the first, 98 nM for the second.

Going from COc1cc(NC(=O)NC2COC3C(C=Cc4ccccc4)COC23)cc(OC)c1 [Example 321, 1-(3,5-Dimethoxy-phenyl)-3-[(3S,3aR,6R)-6-((S)-(Z)-styryl)-hexa-hydro-furo[3,2-b]furan-3-yl]-urea] to Cc1cc(C)cc(NC(=O)NC2COC3C(C=Cc4ccccc4)COC23)c1 [Example 322, 1-(3,5-Dimethyl-phenyl)-3-[(3S,3aR,6R)-6-((S)-(Z)-styryl)-hexa-hydro-furo[3,2-b]furan-3-yl]-urea], the IC50 falls from 66 nM to 7 nM (9.4-fold). The second is the more potent here.

Compared with O=C(Nc1ccccc1)NC1COC2C(C=Cc3ccccc3)COC12 [Example 323, 1-Phenyl-3-[(3S,3aR,6R)-6-((S)-(Z)-styryl)-hexahydro-furo[3,2-b]furan-3-yl]-urea], O=C(Nc1ccc(OCc2ccccc2)cc1)NC1COC2C(C=Cc3ccccc3)COC12 [Example 324, 1-(4-Benzyloxy-phenyl)-3-[(3S,3aR,6R)-6-((S)-(Z)-styryl)-hexa-hydro-furo[3,2-b]furan-3-yl]-urea] is 2.3-fold lower in IC50: 190 nM for the first, 81 nM for the second.

Compared with O=C(Nc1ccc(Cl)c(Cl)c1)NC1COC2C(C=Cc3ccccc3)COC12 [Example 326, 1-(3,4-Dichloro-phenyl)-3-[(3S,3aR,6R)-6-((S)-(Z)-styryl)-hexa-hydro-furo[3,2-b]furan-3-yl]-urea], Cc1cccc(CNC(=O)N[C@H]2CO[C@@H]3[C@@H]2OC[C@H]3/C=C\c2ccccc2)c1 [Example 327, 1-(3-Methyl-benzyl)-3-[(3S,3aR,6R)-6-((S)-(Z)-styryl)-hexahydro-furo[3,2-b]furan-3-yl]-urea] is 3.6-fold higher in IC50: 27 nM for the first, 98 nM for the second. The first is the more potent here.
